Measurements published in article PMC3005981 (Basic & clinical pharmacology & toxicology, 2010).

Assays:
[1] = most incubates; limit of detection approximately 1.0 ng/ml
CYP3A4 [2] = molecular target: CYP3A4 (Homo sapiens, UniProt P08684); test: in vitro; conditions: recombinant enzyme, Supersome
CYP2D6 [3] = test: Inhibition of methadone N-demethylation; conditions: human, microsomes, Inhibition of (R)- and (S)-EDDP formation, HLM with high CYP2D6 activity
CYP1A2 = test: Methadone metabolism in cDNA-expressed CYP Supersomes, with abundance scaling
CYP3A4 [4] = test: as above
CYP2A6 = test: as above
CYP2C19 = test: as above
CYP2C18 = test: as above; conditions: Abundance from Immunquantitation
CYP2C9*1 = test: as above
CYP2D6*1 = test: as above
CYP2C8 = test: as above
CYP2B6 = test: as above
[5] = test system: CYP3A (testosterone 6β-hydroxylation); test: Correlation of EDDP formation with CYP-specific activity in 15 phenotyped HLMs; conditions: 15 HLMs; 750 ng/ml methadone, 0.5 mg/ml protein, 30 min; p<0.05
CYP2D6 [6] = molecular target: CYP2D6 (Homo sapiens, UniProt P10635); test: in vitro; conditions: recombinant enzyme
Sequence of CYP2D6 (Homo sapiens, UniProt P10635) (P10635 whole entry): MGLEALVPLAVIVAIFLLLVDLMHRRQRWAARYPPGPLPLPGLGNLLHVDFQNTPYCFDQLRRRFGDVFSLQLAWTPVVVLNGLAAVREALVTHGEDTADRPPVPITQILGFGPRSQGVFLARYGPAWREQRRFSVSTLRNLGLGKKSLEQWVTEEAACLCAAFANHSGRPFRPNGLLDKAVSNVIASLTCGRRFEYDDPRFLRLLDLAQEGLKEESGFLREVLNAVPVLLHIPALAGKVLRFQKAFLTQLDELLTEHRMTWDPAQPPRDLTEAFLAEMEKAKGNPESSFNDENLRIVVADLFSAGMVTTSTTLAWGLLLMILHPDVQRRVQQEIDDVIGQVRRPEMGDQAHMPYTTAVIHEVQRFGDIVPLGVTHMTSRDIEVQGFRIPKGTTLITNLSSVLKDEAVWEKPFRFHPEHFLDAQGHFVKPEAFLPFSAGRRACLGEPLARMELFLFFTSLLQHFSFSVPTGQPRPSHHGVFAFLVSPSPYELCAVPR

CYP3A4/5 = test: in vitro; conditions: human, microsomes, HLM
[7] = % Inhibition of (R)-EDDP production
[8] = % Inhibition of (S)-EDDP production
[9] = Abundance from Immunquantitation
[10] = Abundance from Relative Activity Factor

Sequence of CYP3A4 (Homo sapiens, UniProt P08684) (P08684 whole entry): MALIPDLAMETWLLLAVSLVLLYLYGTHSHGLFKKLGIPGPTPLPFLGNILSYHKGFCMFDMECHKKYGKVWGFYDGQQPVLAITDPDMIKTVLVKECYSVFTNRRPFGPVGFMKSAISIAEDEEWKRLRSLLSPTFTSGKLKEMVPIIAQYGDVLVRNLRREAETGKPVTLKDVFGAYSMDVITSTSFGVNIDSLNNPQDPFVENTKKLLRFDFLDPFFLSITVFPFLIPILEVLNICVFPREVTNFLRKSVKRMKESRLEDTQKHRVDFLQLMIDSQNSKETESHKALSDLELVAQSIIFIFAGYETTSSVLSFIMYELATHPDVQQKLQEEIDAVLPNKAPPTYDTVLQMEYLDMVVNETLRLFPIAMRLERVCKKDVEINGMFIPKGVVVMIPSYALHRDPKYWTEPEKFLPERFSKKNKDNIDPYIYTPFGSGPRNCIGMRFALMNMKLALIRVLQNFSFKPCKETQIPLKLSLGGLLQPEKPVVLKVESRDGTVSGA

CCC1=NC(C)CC1(c1ccccc1)c1ccccc1 (stereo not drawn) [EMDP, 2-ethyl-5-methyl-3,3-diphenylpyraline]
EMDP production from methadone [1]: no EMDP production was noted

O=C(c1ccc(OCCN2CCCCC2)cc1)c1c(-c2ccc(O)cc2)sc2cc(O)ccc12 [Raloxifene, raloxifene]
inhibition at 15 min, 30 µM (CYP3A4 [2]; [7]): 96.8%
inhibition at 15 min, 30 µM (CYP3A4 [2]; [8]): 97.2%

C=C[C@H]1C[N@@]2CC[C@H]1C[C@@H]2[C@@H](O)c1ccnc2ccc(OC)cc12 [Quinidine, quinidine]
inhibition at 30 min, 10 µM (CYP2D6 [3]; 10 µM): < 30%

CC=C1N(C)[C@@H](C)CC1(c1ccccc1)c1ccccc1 [(S)-EDDP]
Scaled contribution of CYP to formation of R- and S-EDDP (CYP1A2; [9]): 0.0%
Scaled contribution of CYP to formation of R- and S-EDDP (CYP1A2; [10]): 0.0%
Scaled contribution of CYP to formation of R- and S-EDDP (CYP3A4 [4]; [9]): 74.3%
Scaled contribution of CYP to formation of R- and S-EDDP (CYP3A4 [4]; [10]): 69.6%
Scaled contribution of CYP to formation of R- and S-EDDP (CYP2A6; [9]): 0.0%
Scaled contribution of CYP to formation of R- and S-EDDP (CYP2A6; [10]): 0.0%
Scaled contribution of CYP to formation of R- and S-EDDP (CYP2C19; [9]): 4.4%
Scaled contribution of CYP to formation of R- and S-EDDP (CYP2C19; [10]): 1.6%
Scaled contribution of CYP to formation of R- and S-EDDP (CYP2C18): 0.9%
Scaled contribution of CYP to formation of R- and S-EDDP (CYP2C9*1; [9]): 0.4%
Scaled contribution of CYP to formation of R- and S-EDDP (CYP2C9*1; [10]): 1.1%
Scaled contribution of CYP to formation of R- and S-EDDP (CYP2D6*1; [9]): 1.3%
Scaled contribution of CYP to formation of R- and S-EDDP (CYP2D6*1; [10]): 0.6%
Scaled contribution of CYP to formation of R- and S-EDDP (CYP2C8; [9]): 0.2%
Scaled contribution of CYP to formation of R- and S-EDDP (CYP2C8; [10]): 0.4%
Scaled contribution of CYP to formation of R- and S-EDDP (CYP2B6; [9]): 18.5%
Scaled contribution of CYP to formation of R- and S-EDDP (CYP2B6; [10]): 26.7%
Correlation (r) of EDDP formation with testosterone 6β-hydroxylation catalyzed by CYP3A [5]: 0.54

CC=C1N(C)[C@H](C)CC1(c1ccccc1)c1ccccc1 [(R)-EDDP]
Scaled contribution of CYP to formation of R- and S-EDDP (CYP1A2; [9]): 0.0%
Scaled contribution of CYP to formation of R- and S-EDDP (CYP1A2; [10]): 0.0%
Scaled contribution of CYP to formation of R- and S-EDDP (CYP3A4 [4]; [9]): 70.7%
Scaled contribution of CYP to formation of R- and S-EDDP (CYP3A4 [4]; [10]): 71.3%
Scaled contribution of CYP to formation of R- and S-EDDP (CYP2A6; [9]): 0.0%
Scaled contribution of CYP to formation of R- and S-EDDP (CYP2A6; [10]): 0.0%
Scaled contribution of CYP to formation of R- and S-EDDP (CYP2C19; [9]): 14.4%
Scaled contribution of CYP to formation of R- and S-EDDP (CYP2C19; [10]): 5.8%
Scaled contribution of CYP to formation of R- and S-EDDP (CYP2C18): 0.7%
Scaled contribution of CYP to formation of R- and S-EDDP (CYP2C9*1; [9]): 1.2%
Scaled contribution of CYP to formation of R- and S-EDDP (CYP2C9*1; [10]): 3.7%
Scaled contribution of CYP to formation of R- and S-EDDP (CYP2D6*1; [9]): 1.0%
Scaled contribution of CYP to formation of R- and S-EDDP (CYP2D6*1; [10]): 0.5%
Scaled contribution of CYP to formation of R- and S-EDDP (CYP2C8; [9]): 0.4%
Scaled contribution of CYP to formation of R- and S-EDDP (CYP2C8; [10]): 0.9%
Scaled contribution of CYP to formation of R- and S-EDDP (CYP2B6; [9]): 11.5%
Scaled contribution of CYP to formation of R- and S-EDDP (CYP2B6; [10]): 17.8%
Correlation (r) of EDDP formation with testosterone 6β-hydroxylation catalyzed by CYP3A [5]: 0.82

Fc1ccc([C@@H]2CCNC[C@H]2COc2ccc3c(c2)OCO3)cc1 [Paroxetine, paroxetine]
inhibition at 30 min, 1 µM (CYP2D6 [6]; % Inhibition of (R)-EDDP production, Supersome): 9.9%
inhibition at 30 min, 1 µM (CYP2D6 [6]; % Inhibition of (S)-EDDP production, Supersome): 7.6%
inhibition at 30 min, 1 µM (CYP2D6 [6]; Inhibition of Supersome 2D6 activity): < 30%
inhibition at 30 min, 1 µM (CYP2D6 [3]; 1 µM): < 30%

NNC(=O)c1ccncc1 [Isoniazid, isoniazid]
inhibition at 15 min, 500 µM (CYP3A4 [2]; [7]): 96.9%
inhibition at 15 min, 500 µM (CYP3A4 [2]; [8]): 96.9%
inhibition at 15 min, 500 µM (CYP3A4/5; [7]): 70.8%
inhibition at 15 min, 500 µM (CYP3A4/5; [8]): 51.4%
